From the NIST ThermoML archive (doi:10.1016/j.tca.2012.05.025)
± gives the expanded uncertainty stated by the source.

Key:
[1] = for surface tension liquid-gas: roughened platinum plate-detachment; for viscosity / mass density: 101 kPa, Liquid; for viscosity: Capillary tube (Ostwald / Ubbelohde) method; for mass density: Vibrating tube method
[2] = refractive index (Na D-line) (dimensionless); settings: 101.33 kPa, Liquid, Standard Abbe refractometry
[3] = refractive index (Na D-line) (dimensionless); xn = mol fraction of the nth substance listed; settings: 101 kPa, Liquid, Standard Abbe refractometry, x2 = 0
[4] = xn = mol fraction of the nth substance listed; settings: x2 = 0; for surface tension liquid-gas: roughened platinum plate-detachment; for viscosity / mass density: 101 kPa, Liquid; for viscosity: Capillary tube (Ostwald / Ubbelohde) method; for mass density: Vibrating tube method

SMILES: CN(C)CCCO [3-dimethylamino-1-propanol]
- surface tension liquid-gas ([1]; 298.15 K): 29.01 ± 0.18 mN/m
- viscosity ([1]; 298.15 K): 5.839 ± 0.12 mPa·s
- mass density ([1]; 298.15 K): 880.25 ± 0.24 kg/m3
- surface tension liquid-gas ([1]; 303.15 K): 29.28 ± 0.18 mN/m
- viscosity ([1]; 303.15 K): 4.963 ± 0.11 mPa·s
- mass density ([1]; 303.15 K): 876.46 ± 0.24 kg/m3
- surface tension liquid-gas ([1]; 308.15 K): 28.88 ± 0.18 mN/m
- surface tension liquid-gas ([1]; 313.15 K): 28.47 ± 0.17 mN/m
- viscosity ([1]; 313.15 K): 4.266 ± 0.091 mPa·s
- mass density ([1]; 313.15 K): 868.42 ± 0.24 kg/m3
- surface tension liquid-gas ([1]; 318.15 K): 28.13 ± 0.17 mN/m
- surface tension liquid-gas ([1]; 323.15 K): 27.63 ± 0.17 mN/m
- viscosity ([1]; 323.15 K): 3.253 ± 0.069 mPa·s
- mass density ([1]; 323.15 K): 860.29 ± 0.24 kg/m3
- surface tension liquid-gas ([1]; 333.15 K): 26.81 ± 0.17 mN/m
- viscosity ([1]; 333.15 K): 2.768 ± 0.059 mPa·s
- mass density ([1]; 333.15 K): 852.1 ± 0.24 kg/m3
- viscosity ([1]; 343.15 K): 2.03 ± 0.043 mPa·s
- mass density ([1]; 343.15 K): 843.77 ± 0.24 kg/m3
- refractive index ([2]; 293.15 K): 1.4368 ± 0.005
- refractive index ([2]; 298.15 K): 1.4347 ± 0.005
- refractive index ([2]; 303.15 K): 1.4326 ± 0.005
- refractive index ([2]; 308.15 K): 1.4305 ± 0.005
- refractive index ([2]; 313.15 K): 1.4285 ± 0.005
- refractive index ([2]; 318.15 K): 1.4264 ± 0.005
- refractive index ([2]; 323.15 K): 1.4243 ± 0.005
- refractive index ([2]; 328.15 K): 1.4222 ± 0.005
- refractive index ([2]; 333.15 K): 1.42 ± 0.005

SMILES: O [water] + CN(C)CCCO
- refractive index ([3]; 293.15 K): 1.333 ± 0.005
- refractive index ([3]; 298.15 K): 1.3325 ± 0.005
- refractive index ([3]; 303.15 K): 1.3319 ± 0.005
- refractive index ([3]; 308.15 K): 1.3314 ± 0.005
- refractive index ([3]; 313.15 K): 1.3307 ± 0.005
- refractive index ([3]; 318.15 K): 1.3299 ± 0.005
- refractive index ([3]; 323.15 K): 1.3291 ± 0.005
- refractive index ([3]; 328.15 K): 1.3282 ± 0.005
- refractive index ([3]; 333.15 K): 1.3273 ± 0.005
- surface tension liquid-gas ([4]; 298.15 K): 72.09 ± 2 mN/m
- viscosity ([4]; 298.15 K): 0.882 ± 0.018 mPa·s
- surface tension liquid-gas ([4]; 303.15 K): 71.27 ± 2 mN/m
- viscosity ([4]; 303.15 K): 0.804 ± 0.017 mPa·s
- surface tension liquid-gas ([4]; 308.15 K): 70.44 ± 2 mN/m
- surface tension liquid-gas ([4]; 313.15 K): 69.66 ± 2 mN/m
- viscosity ([4]; 313.15 K): 0.659 ± 0.014 mPa·s
- surface tension liquid-gas ([4]; 318.15 K): 68.83 ± 2 mN/m
- surface tension liquid-gas ([4]; 323.15 K): 67.95 ± 2 mN/m
- viscosity ([4]; 323.15 K): 0.551 ± 0.012 mPa·s
- mass density ([4]; 323.15 K): 988.03 ± 0.11 kg/m3
- surface tension liquid-gas ([4]; 333.15 K): 66.23 ± 2 mN/m
- viscosity ([4]; 333.15 K): 0.47 ± 0.01 mPa·s
- mass density ([4]; 333.15 K): 983.19 ± 0.11 kg/m3
- viscosity ([4]; 343.15 K): 0.407 ± 0.009 mPa·s
- mass density ([4]; 343.15 K): 977.75 ± 0.11 kg/m3

SMILES: O [water]
- surface tension liquid-gas ([1]; 298.15 K): 72.09 ± 0.1 mN/m
- viscosity ([1]; 298.15 K): 0.882 ± 0.018 mPa·s
- surface tension liquid-gas ([1]; 303.15 K): 71.27 ± 0.1 mN/m
- viscosity ([1]; 303.15 K): 0.804 ± 0.017 mPa·s
- surface tension liquid-gas ([1]; 308.15 K): 70.44 ± 0.1 mN/m
- surface tension liquid-gas ([1]; 313.15 K): 69.66 ± 0.1 mN/m
- viscosity ([1]; 313.15 K): 0.659 ± 0.014 mPa·s
- surface tension liquid-gas ([1]; 318.15 K): 68.83 ± 0.1 mN/m
- surface tension liquid-gas ([1]; 323.15 K): 67.95 ± 0.1 mN/m
- viscosity ([1]; 323.15 K): 0.551 ± 0.012 mPa·s
- mass density ([1]; 323.15 K): 988.03 ± 0.11 kg/m3
- surface tension liquid-gas ([1]; 333.15 K): 66.23 ± 0.1 mN/m
- viscosity ([1]; 333.15 K): 0.47 ± 0.01 mPa·s
- mass density ([1]; 333.15 K): 983.19 ± 0.11 kg/m3
- viscosity ([1]; 343.15 K): 0.407 ± 0.009 mPa·s
- mass density ([1]; 343.15 K): 977.75 ± 0.11 kg/m3
- refractive index ([2]; 293.15 K): 1.333 ± 0.005
- refractive index ([2]; 298.15 K): 1.3325 ± 0.005
- refractive index ([2]; 303.15 K): 1.3319 ± 0.005
- refractive index ([2]; 308.15 K): 1.3314 ± 0.005
- refractive index ([2]; 313.15 K): 1.3307 ± 0.005
- refractive index ([2]; 318.15 K): 1.3299 ± 0.005
- refractive index ([2]; 323.15 K): 1.3291 ± 0.005
- refractive index ([2]; 328.15 K): 1.3282 ± 0.005
- refractive index ([2]; 333.15 K): 1.3273 ± 0.005
